Reference: a melting point compilation (Tetko et al.)

| SMILES | melting point [°C] |
| --- | --- |
| O=C(O)c1c[nH]nc1-c1ccc(F)cc1 | 302 to 304 |
| N#Cc1cccc(C(=O)NN)c1 | 166 to 168 |
| O=[N+]([O-])c1cc(C(F)(F)F)ccc1I | 34 to 36 |
| O=C(Cn1c(Cl)nc2ccccc21)c1ccccc1 | 168 to 170 |
| COc1cc(C(N)=NO)ccc1O | 147 to 149 |
| Nc1nc2c(s1)COCC2 | 144 to 146 |
| O=C(CCl)Nc1cc(Cl)ccc1C(=O)O | 152 to 154 |
| Nc1nc(-c2cccs2)cs1 | 136 to 138 |
| C#CCOc1c(Cl)cc(C=O)cc1OC | 106 to 108 |
| CC(=O)CCc1ccc2c(c1)OCO2 | 50 to 52 |
| CCC(C)(C)NS(=O)(=O)c1ccc(Cl)nc1 | 86 to 88 |
| O=C(O)CSCc1ccc(F)cc1 | 71 to 73 |
| Cn1cc(CC(=O)O)c2ccccc21 | 126 to 128 |
| Cc1ccc(-c2nnc3n2CCCCC3)cc1N | 171 to 173 |
| Nc1c(-c2cccnc2)nc2ccccn12 | 179 to 181 |
| Cc1ccoc1C(=O)CC#N | 93 to 95 |
| CS(=O)(=O)Nc1ccc(N)cc1Cl | 181 to 183 |
| CCOC(=O)c1csc(NC2CC2)n1 | 89 to 91 |
| CCCCS(=O)(=O)Nc1ccc(S(=O)(=O)Cl)cc1 | 123 to 125 |
| Nc1ncn(-c2ccncc2)n1 | 213 to 215 |
| Cc1cccc(C(=O)N2CCSCC2)c1O | 88 to 90 |
| Cc1ccc(N2CC(C(=O)O)CC2=O)cc1 (stereo unspecified) | 184 to 186 |

| SMILES | melting point [°C] |
| --- | --- |
| Fc1cccc(-n2nnnc2S)c1 | 128 to 146 |
| Nc1ccc2c(ccn2CCN2CCOCC2)c1 | 102 to 104 |
| CC(C)CC1CC(=O)NC(=O)C1 | 136 to 138 |
| Cc1nnc(CCl)s1 | 76 to 78 |
| CCOc1ccc(S(N)(=O)=O)c2ccccc12 | 168 to 170 |
| NNC(=O)c1c(Cl)cccc1Cl | 180 to 182 |
| CSc1ccc(Cl)nn1 | 104 to 106 |
| NCC(O)c1ccc(Cl)c(F)c1 (stereo unspecified) | 54 to 56 |
| CN(Cc1ccccc1N)C(=O)c1cc2ccccc2o1 | 109 to 111 |
| Cn1cc(C(=O)NCC2CCNCC2)cn1 | 175 to 177 |
| Nc1ccnc(OC2CCCCC2)c1 | 114 to 116 |
| Cc1[nH]c(=O)c(C(=O)O)cc1-c1ccccc1 | 258 to 260 |
| COc1ccccc1NCC(=O)O | 159 to 161 |
| O=C(O)CCNC(=O)CCC(=O)O | 132 to 134 |
| Nc1ccc(Br)c2ccccc12 | 102 to 104 |
| O=C(O)c1ccccc1SCC(=O)N1CCc2ccccc21 | 152 to 154 |
| Fc1ccccc1CNc1ccc(Cl)nn1 | 169 to 171 |
| N#Cc1ccc(CS(N)(=O)=O)cc1 | 154 to 156 |
| Cc1ccc(NC(=O)CCl)c(C)c1 | 153 to 155 |
| COc1ccc(-n2c(S)nc3ccccc32)cc1 | 213 to 215 |
| O=[N+]([O-])c1ccc2nc(S)oc2c1 | 192 to 194 |
| CC(C)CS(=O)(=O)CC(=O)O | 46 to 48 |

| SMILES | melting point [°C] |
| --- | --- |
| Nc1ccc(Oc2ccc(F)cc2)c2ccncc12 | 149 to 151 |
| CC(C)C(Oc1ccccc1Br)C(=O)O (stereo unspecified) | 63 to 65 |
| COc1c(F)c(F)c(N)c(F)c1F | 78 to 80 |
| CCOC(=O)c1cnc(C)c(C(=O)O)c1 | 199 to 201 |
| O=C(CCl)Nc1cccc(C(=O)N2CCSCC2)c1 | 152 to 154 |
| N#Cc1cnccc1N | 170 to 172 |
| O=C(O)c1cccc(OCC(F)(F)F)c1 | 104 to 106 |
| O=C(O)CN1Cc2ccccc2C1 | 209 to 211 |
| O=c1ccc(-c2ccc3c(c2)OCCCO3)n[nH]1 | 199 to 201 |
| Cc1cc2ccc(Cl)cc2nc1NN | 169 to 171 |
| CCC(C#N)(CC)NC(=O)OC(C)(C)C | 98 to 100 |
| N#CCCn1cc(C(=O)CCl)c2ccccc21 | 138 to 140 |
| CC(CN)N1CCN(c2ccccc2)CC1 (stereo unspecified) | 91 to 93 |
| O=C(c1cc(Br)c[nH]1)C(Cl)(Cl)Cl | 125 to 127 |
| Cc1nn(C(C)(C)C)c2nc(C3CC3)cc(C(=O)O)c12 | 172 to 174 |
| COCCn1nc(C(=O)O)ccc1=O | 156 to 158 |
| Cc1nn(Cc2ccccc2)c(Cl)c1C(=O)O | 180 to 182 |
| Nc1ccc(N2CCc3sccc3C2)cc1 | 61 to 63 |
| CSCCC(NS(=O)(=O)c1ccccc1F)C(=O)O (stereo unspecified) | 104 to 106 |
| Cc1sc(N)c(C#N)c1C | 134 to 136 |
| CC1CCC(C(=O)O)C2C(=O)N(c3ccccc3)C(=O)C12 (stereo unspecified) | 182 to 184 |
| COC(=O)c1ccc(F)c(N)c1 | 67 to 69 |

The next lines start with the values.

| melting point [°C] | SMILES |
| --- | --- |
| 279 to 281 | N#Cc1ccc2cc(C(=O)O)ccc2c1 |
| 124 to 126 | O=[N+]([O-])c1ccc(C2NCCS2)cc1 (stereo unspecified) |
| 182 to 184 | O=C(O)c1cc(I)cc(C(F)(F)F)c1 |
| 139 to 141 | O=S1(=O)CCNc2ccccc21 |
| 109 to 111 | O=C(C1OCCc2ccccc21)N1CCCC1 (stereo unspecified) |
| 104 to 106 | Cc1nc(-c2cccc(N)c2)oc1C |
| 284 to 286 | O=S1(=O)Nc2ncnn2-c2ccccc21 |
| 181 to 183 | NNC(=O)C(=O)NC1CC1 |
| 90 to 93 | CCOC(=O)c1c(NC(=O)C(C)Cl)sc2c1CCC(C)C2 (stereo unspecified) |
| 179 to 181 | CC(C)CNS(=O)(=O)c1cc(C(=O)O)c(Cl)cc1Cl |
| 120 to 122 | Nc1cccc(CS(=O)(=O)Cc2ccccc2)c1 |
| 114 to 116 | Nc1ccccc1N1CCc2ccccc2C1 |
| 209 to 211 | NC(=O)Cn1cnc(-c2ccccc2)c1N |
| 51 to 53 | N#CCN1CCSCC1 |
| 120 to 122 | Cc1n[nH]c(N)c1-c1ccc2c(c1)OCCO2 |
| 103 to 105 | O=C(O)C1=CCCSC1 |
| 81 to 83 | O=c1n(CCCO)nc2ccccn12 |
| 149 to 151 | Cc1cccc(-c2nc(C(=O)O)c(C)[nH]2)c1 |
| 72 to 74 | O=C(O)CC1(O)CCCC1 |
| 167 to 169 | CC1CC(C)CN(c2ccc(C(=O)O)cc2[N+](=O)[O-])C1 (stereo unspecified) |
| 161 to 163 | O=C(O)c1ccc(Cn2cccc2)cc1 |
| 168 to 170 | O=C(CSc1ccccc1C(=O)O)NC1CCCCCCC1 |
| 83 to 85 | COc1ccc(C(=O)C(C)Br)cc1OC (stereo unspecified) |
| 138 to 140 | CC(NC(=O)c1ccc(Br)cc1)C(=O)O (stereo unspecified) |
| 168 to 170 | O=C(O)c1cc(Cl)c(Br)[nH]1 |
| 59 to 61 | O=Cc1cc[nH]c1 |
| 196 to 198 | O=C(O)c1csc(-c2ccc(F)cc2)n1 |

| melting point [°C] | SMILES |
| --- | --- |
| 135 to 137 | Nc1ccc(Cl)c(-n2nnnc2C2CC2)c1 |
| 119 to 121 | Nc1cc(N2CCOC2=O)ccc1F |
| 32 to 34 | COc1ccc(Br)nc1C(F)(F)F |
| 128 to 130 | COC(=O)c1ccc(C(=O)OC)c(NC(=O)C(C)Cl)c1 (stereo unspecified) |
| 101 to 103 | CCc1nc(C(=O)O)co1 |
| 198 to 200 | COc1ccc(C(=O)NCC(=O)O)cc1OC |
| 83 to 85 | Cc1cc(C(=O)CCl)c(C)n1Cc1cccs1 |
| 165 to 177 | CC(=O)c1csc(N)n1 |
| 164 to 166 | NNC(=O)Nc1ccc2c(c1)OCO2 |
| 238 to 242 | O=c1c2ccccc2c(-c2nnc(S)o2)nn1Cc1ccccc1 |
| 260 to 262 | Nc1nnc(-c2ccccn2)s1 |
| 144 to 146 | Cc1ccc(Nc2ncccc2N)cc1 |
| 118 to 120 | CCOc1cccc(C(N)=S)c1 |
| 149 to 151 | C#CCNS(=O)(=O)c1ccc(C(=O)O)cc1 |
| 139 to 141 | CC(=O)Nc1ccc(OC2CCCCC2O)cc1 (stereo unspecified) |
| 110 to 112 | O=C(c1ccc(S(=O)(=O)Cl)cc1)N1CCOCC1 |
| 120 to 122 | Cc1c(NC(=O)C(C)Cl)cccc1[N+](=O)[O-] (stereo unspecified) |
| 139 to 141 | CCOc1ccc(S(=O)(=O)NCC(=O)O)cc1 |
| 339 to 341 | CCOC(=O)c1c[nH]c2cc(F)c(F)c(F)c2c1=O |
| 141 to 143 | Cc1ccc(-n2c(S)nnc2-c2ccc(Cl)cc2)cc1 |
| 121 to 123 | Cn1c(S)nnc1-c1ccncc1 |
| 174 to 176 | O=C(O)c1cccc(S(=O)(=O)N2CCc3ccccc32)c1 |
| 128 to 130 | N#Cc1cc(Cl)ccc1OC1CCOC1 (stereo unspecified) |
| 198 to 200 | NC(=O)NCc1ccncc1 |
| 119 to 121 | COc1ccc(C=O)cc1C#N |
| 58 to 60 | CCOc1ccc(N)cc1CN1CCCC1 |
| 154 to 156 | Cc1ccc(S(=O)(=O)N2CCCCC2)cc1S(=O)(=O)Cl |

| melting point [°C] | SMILES |
| --- | --- |
| 215 to 217 | CCNc1nc(C(=O)O)cs1 |
| 144 to 146 | CC1(c2cccnc2)NC(=O)NC1=O (stereo unspecified) |
| 85 to 87 | COCc1cc(C(=O)O)no1 |
| 155 to 157 | O=C(O)C(NC1CC1)c1cc(Br)cs1 (stereo unspecified) |
| 149 to 151 | Nc1ncc(-c2ccccc2F)s1 |
| 84 to 86 | CCOc1c(Br)cc(C=O)cc1OC |
| 77 to 79 | Clc1nc(C2CC2)nc2scc(-c3ccccc3)c12 |
| 103 to 105 | O=C(O)C1CCCN1S(=O)(=O)c1ccc(Br)cc1 (stereo unspecified) |
| 146 to 148 | O=C(O)COc1ccc(Br)cc1Cl |
| 285 to 287 | O=C(O)c1cccc2[nH]ncc12 |
| 173 to 175 | O=C(O)C1CSC2(c3ccccc3)CCC(=O)N12 (stereo unspecified) |
| 117 to 119 | CC=Cc1ccc(OCC(=O)O)c(OC)c1 |
| 83 to 85 | Nc1ccnn1Cc1ccc(Br)s1 |
| 125 to 127 | CCn1cnnc1Nc1ccccc1 |
| 80 to 82 | OC1CCN(c2cncc(Cl)n2)C1 (stereo unspecified) |
| 158 to 160 | CC1CNc2ccccc2CN1C(=O)OC(C)(C)C (stereo unspecified) |
| 130 to 135 | CS(=O)c1ccccc1C(=O)O (stereo unspecified) |
| 104 to 106 | NNC(=O)CC1CCS(=O)(=O)C1 (stereo unspecified) |
| 178 to 180 | Cc1cc(C)n2nc(C(=O)O)nc2n1 |
| 223 to 225 | NC(=O)c1cn[nH]c1 |
| 35 to 37 | O=C(c1ccc(Br)cc1)c1ccccc1F |
| 101 to 103 | Nc1ccc(-c2cccc(C(F)(F)F)c2)cn1 |
| 85 to 87 | COc1ccc2ccccc2c1-c1cc(CBr)on1 |
| 157 to 159 | NS(=O)(=O)c1cnn(Cc2ccccc2)c1 |
| 166 to 168 | NC(=O)Nc1ccc(F)c(Cl)c1 |
| 112 to 114 | O=Cc1nc(-c2cc(Cl)ccc2Cl)cs1 |
